Experimental data reported in patent US20120232069A1, “PROCESS FOR PREPARING EFAVIRENZ POLYMORPH” (HETERO RESEARCH FOUNDATION, priority 2008, published 2012).

Test: Hygroscopicity: increase of water content on storage at 25° C. under relative humidity of 60%
Format: physicochemical
Details: six months
Procedure: Thus, for example, water content of crystalline form H1 produced according to the present invention is increased by 0.2% in six months at the temperature of 25° C. under relative humidity of 60%. Crystalline form H1 obtained according to the present invention typically has the water content of 2.5-8% by weight of the product obtained, more preferably 3-7% by weight, still more preferably 4-6% by weight as determined by Karl fisher method.

| increase of water content on storage | Compound |
| --- | --- |
| 0.2% | O=C1Nc2ccc(Cl)cc2[C@@](C#CC2CC2)(C(F)(F)F)O1 [crystalline form H1 produced according to the present invent] [(4S)-6-chloro-4-(cyclopropylethynyl)-1,4-dihydro-4-(trifluoromethyl)-2H-3,1-benzoxazin-2-one] |
| 2.37% | O=C1Nc2ccc(Cl)cc2[C@@](C#CC2CC2)(C(F)(F)F)O1 [crystalline form H1 disclosed in WO 2006/018853] [(4S)-6-chloro-4-(cyclopropylethynyl)-1,4-dihydro-4-(trifluoromethyl)-2H-3,1-benzoxazin-2-one] |
